Reference: patent US9321748B2, “Aminopyridine derived compounds as LRRK2 inhibitors” (H. Lundbeck A/S, priority 2013, dated 2016)

Experiments:
LRRK2 G2019S = LRRK2 G2019S (Homo sapiens (Human), UniProt Q5S007, G2019S); experiment: LRRK2 G2019S kinase activity assay (LanthaScreen TR-FRET); format: biochemical; conditions: 250 pM LRRK2 G2019S kinase, 1.3 mM ATP, 0.4 μM fluorescein-LRRKtide
Procedure: (§1) LRRK2 Wild-Type and G2019S Kinase Activity Assay.
(§2) LRRK2 kinase activity is measured using a LanthaScreen kinase activity assay available from Invitrogen (Life Technologies Corporation). […] The phosphorylated peptide is recognized by a terbium-labelled phospho-specific anti-LRRKtide antibody and, subsequently, the phosphorylated LRRKtide can be quantified by the extent of TR-FRET between the terbium donor and fluorescein acceptor.
(§3) The LRRK2 kinase is obtained from Invitrogen (Life Technologies Corporation) and comprises residue 970 to 2527 of the full length human wildtype LRRK2 kinase or a similar sequence with the G2019S mutation. As discussed above, this mutation increases the kinase activity relative to the wild type. The kinase reactions are performed in a […] volume in 384-well plates. The kinase reaction buffer consists of 50 mM Tris pH 8.5, 0.01% BRIJ-35, 10 mM MgCl2, 1 mM EGTA, and 2 mM DTT.
(§4) The reaction mixture (20 μl total volume) is incubated for 2 hours at 30° C. before the reaction is terminated by addition of 10 mM EDTA and 1 nM terbium-labelled anti-phospho-LRRKtide antibody (final volume […]). The mixture is further incubated for 30 minutes at RT. TR-FRET is measured by excitation of the terbium-donor with 340 nm light and subsequent (delay time 100 μs) measurement of terbium and fluorescein emission at 495 nm and 520 nm, respectively, over a time window of 1000 μs. The measurement is repeated 10 times for fluorescein and 10 times for terbium emission with a 2000 μs time window between repeats. TR-FRET measurements are performed on a […] plate. The TR-FRET signal is calculated as the emission-ratio at 520 nm over 495 nm.
(§5) Test compound potency (IC50) was estimated by nonlinear regression using the sigmoidal dose-response (variable slope) using Xlfit 4 (IDBS, Guildford, Surrey, UK, model 205). y=(A+((B−A)/(1+((C/x)^D)))) where y is the normalized TR-TRET ratio measurement for a given concentration of test compound, x is the concentration of test compound, A is the estimated efficacy (% inhibition) at infinite compound dilution, and B is the maximal efficacy (% inhibition). C is the IC50 value and D is the Hill slope coefficient. IC50 estimates were obtained from independent experiment and the logarithmic average was calculated.

LRRK2 WT = LRRK2 WT (Homo sapiens (Human), UniProt Q5S007); experiment: LRRK2 wild-type kinase activity assay (LanthaScreen TR-FRET); format: biochemical; conditions: 1 nM LRRK2 WT kinase, 1.3 mM ATP, 0.4 μM fluorescein-LRRKtide
Chain of LRRK2 WT (Q5S007 970-2527): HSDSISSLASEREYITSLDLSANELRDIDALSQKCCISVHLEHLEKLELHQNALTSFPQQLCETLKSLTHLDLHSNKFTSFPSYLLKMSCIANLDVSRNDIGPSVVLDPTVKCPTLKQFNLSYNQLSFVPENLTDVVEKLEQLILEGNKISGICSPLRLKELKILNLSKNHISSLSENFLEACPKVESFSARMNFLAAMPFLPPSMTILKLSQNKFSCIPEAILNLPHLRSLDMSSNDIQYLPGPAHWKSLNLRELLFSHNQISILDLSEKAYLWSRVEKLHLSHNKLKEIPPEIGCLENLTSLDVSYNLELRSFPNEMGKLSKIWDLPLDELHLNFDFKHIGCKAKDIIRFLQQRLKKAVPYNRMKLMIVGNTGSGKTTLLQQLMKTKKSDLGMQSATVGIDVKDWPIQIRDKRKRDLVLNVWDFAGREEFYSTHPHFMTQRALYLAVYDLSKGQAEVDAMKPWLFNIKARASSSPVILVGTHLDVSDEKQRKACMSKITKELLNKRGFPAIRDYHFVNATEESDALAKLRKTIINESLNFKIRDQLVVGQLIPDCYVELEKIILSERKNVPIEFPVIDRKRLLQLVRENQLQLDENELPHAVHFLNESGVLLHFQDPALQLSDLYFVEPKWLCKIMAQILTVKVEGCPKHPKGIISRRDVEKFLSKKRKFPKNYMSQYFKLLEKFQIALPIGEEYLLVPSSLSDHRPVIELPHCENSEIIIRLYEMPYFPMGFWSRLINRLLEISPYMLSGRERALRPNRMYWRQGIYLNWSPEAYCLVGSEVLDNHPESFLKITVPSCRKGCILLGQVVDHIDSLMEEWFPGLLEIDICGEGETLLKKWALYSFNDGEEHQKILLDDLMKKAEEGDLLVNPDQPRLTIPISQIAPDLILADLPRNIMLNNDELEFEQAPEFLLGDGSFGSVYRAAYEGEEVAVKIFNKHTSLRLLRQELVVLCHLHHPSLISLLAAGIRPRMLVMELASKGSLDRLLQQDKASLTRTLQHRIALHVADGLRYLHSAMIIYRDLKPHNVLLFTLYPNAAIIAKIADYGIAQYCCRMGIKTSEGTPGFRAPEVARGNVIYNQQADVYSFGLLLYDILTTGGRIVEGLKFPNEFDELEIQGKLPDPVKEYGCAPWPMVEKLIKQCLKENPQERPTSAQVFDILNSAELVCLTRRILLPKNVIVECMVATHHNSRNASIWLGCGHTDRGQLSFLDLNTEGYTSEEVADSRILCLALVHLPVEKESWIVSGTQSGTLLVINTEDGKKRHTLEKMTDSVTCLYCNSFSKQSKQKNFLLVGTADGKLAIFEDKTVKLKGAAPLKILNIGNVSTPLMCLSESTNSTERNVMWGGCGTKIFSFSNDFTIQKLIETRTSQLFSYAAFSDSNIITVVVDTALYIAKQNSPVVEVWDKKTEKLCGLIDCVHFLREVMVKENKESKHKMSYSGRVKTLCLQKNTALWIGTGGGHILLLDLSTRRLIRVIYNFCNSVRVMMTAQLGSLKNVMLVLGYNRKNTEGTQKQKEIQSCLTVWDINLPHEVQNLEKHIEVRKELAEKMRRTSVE
Procedure: as §1, §2, §3, §4, §5

Chain of LRRK2 G2019S (Q5S007 970-2527 G2019S): as the sequence (Q5S007 970-2527) above, with G1050S counted along it

SMILES | IC50 (LRRK2 G2019S) | IC50 (LRRK2 WT)
COc1cccc(-c2cnc(N)c(-c3nnc(C4CCN(C)CC4)o3)c2)c1 [Example 8, 5-(3-Methoxy-phenyl)-3-[5-(1-methyl-piperidin-4-yl)-[1,3,4]oxadiazol-2-yl]-pyridin-2-ylamine] | 880 nM | 2200 nM
CC(C)c1nnc(-c2cc(-c3ccc4[nH]ccc4c3)cnc2N)o1 [Example 1, 5-(1H-Indol-5-yl)-3-(5-isopropyl-[1,3,4]oxadiazol-2-yl)-pyridin-2-ylamine] | 910 nM | 
Nc1ncc(-c2ccc3[nH]ccc3c2)cc1-c1nnc(C2CC2)o1 [Example 2, 3-(5-Cyclopropyl-[1,3,4]oxadiazol-2-yl)-5-(1H-indol-5-yl)-pyridin-2-ylamine] | 1000 nM | 570 nM
CC(C)n1cc(-c2cc(-c3ccc4c(ccn4C)c3)cnc2N)nn1 [Example 9, 3-(1-Isopropyl-1H-[1,2,3]triazol-4-yl)-5-(1-methyl-1H-indol-5-yl)-pyridin-2-ylamine] | 540 nM | 550 nM
CC(C)n1cc(-c2cc(-c3ccc(CC(=O)N4CCOCC4)cc3)cnc2N)nn1 [Example 30, 2-[4-[6-amino-5-(1-isopropyltriazol-4-yl)-3-pyridyl]phenyl]-1-morpholino-ethanone] | 520 nM | 670 nM
Cc1cc(-c2cnc(N)c(-c3cn(C(C)C)nn3)c2)ccc1C(=O)N1CCOCC1 [Example 20, [4-[6-amino-5-(1-isopropyltriazol-4-yl)-3-pyridyl]-2-methyl-phenyl]-morpholino-methanone] | 110 nM | 99 nM
CC(C)n1cc(-c2cc(-c3ccc(N4CCOCC4)cc3)cnc2N)nn1 [Example 13, 3-(1-Isopropyl-1H-[1,2,3]triazol-4-yl)-5-(4-morpholin-4-yl-phenyl)-pyridin-2-ylamine] | 280 nM | 340 nM
CC(C)n1cc(-c2cc(-c3cccc(C(=O)N4CCOCC4)c3)cnc2N)nn1 [Example 25, [3-[6-Amino-5-(1-isopropyltriazol-4-yl)-3-pyridyl]phenyl]-morpholino-methanone] | 950 nM | 650 nM
CC(C)n1cc(-c2cc(-c3ccc(CN4CCOCC4)c(Cl)c3)cnc2N)nn1 [Example 23, 5-[3-Chloro-4-(morpholinomethyl)phenyl]-3-(1-isopropyltriazol-4-yl)pyridin-2-amine] | 220 nM | 320 nM
Nc1ncc(-c2ccc(CN3CCOCC3)cc2)cc1-c1nnc(C2CC2)o1 [Example 6, 3-(5-Cyclopropyl-[1,3,4]oxadiazol-2-yl)-5-(4-morpholin-4-ylmethyl-phenyl)-pyridin-2-ylamine] | 390 nM | 490 nM
COc1cc(-c2cnc(N)c(-c3cn(C(C)C)nn3)c2)ccc1CN1CCOCC1 [Example 18, 3-(1-isopropyltriazol-4-yl)-5-[3-methoxy-4-(morpholinomethyl)phenyl]pyridin-2-amine] | 86 nM | 93 nM
CC(C)n1cc(-c2cc(-c3ccc4c(c3)CCN4C)cnc2N)nn1 [Example 10, 3-(1-Isopropyl-1H-[1,2,3]triazol-4-yl)-5-(1-methyl-2,3-dihydro-1H-indol-5-yl)-pyridin-2-ylamine] | 350 nM | 620 nM
CC(C)n1cc(-c2cc(-c3ccc(C(=O)N4CCOCC4)c(F)c3)cnc2N)nn1 [Example 16, (4-(6-amino-5-(1-isopropyl-1H-1,2,3-triazol-4-yl)pyridin-3-yl)-2-fluorophenyl)(morpholino)methanone] | 510 nM | 580 nM
CN1CCc2cc(-c3cnc(N)c(-c4nnc(C5CC5)o4)c3)ccc21 [Example 3, 3-(5-Cyclopropyl-[1,3,4]oxadiazol-2-yl)-5-(1-methyl-2,3-dihydro-1H-indol-5-yl)-pyridin-2-ylamine] | 710 nM | 970 nM
CC(C)n1cc(-c2cc(-c3cc(Cl)cc(C(=O)N4CCOCC4)c3)cnc2N)nn1 [Example 26, [3-[6-Amino-5-(1-isopropyltriazol-4-yl)-3-pyridyl]-5-chloro-phenyl]-morpholino-methanone] | 690 nM | 490 nM
CC(C)n1cc(-c2cc(-c3ccc(CCN4CCOCC4)cc3)cnc2N)nn1 [Example 14, 3-(1-Isopropyl-1H-[1,2,3]triazol-4-yl)-5-[4-(2-morpholin-4-yl-ethyl)-phenyl]-pyridin-2-ylamine] | 340 nM | 600 nM
Cc1ccc(-c2cnc(N)c(-c3nnc(C4CCN(C)CC4)o3)c2)cc1 [Example 4, 3-[5-(1-Methyl-piperidin-4-yl)-[1,3,4]oxadiazol-2-yl]-5-p-tolyl-pyridin-2-ylamine] | 860 nM | 3600 nM
CC(C)n1cc(-c2cc(-c3ccc(CN4CCOCC4)cc3)cnc2N)nn1 [Example 12, 3-(1-Isopropyl-H-[1,2,3]triazol-4-yl)-5-(4-morpholin-4-ylmethyl-phenyl)-pyridin-2-ylamine] | 160 nM | 300 nM
CC(C)n1cc(-c2cc(-c3ccc(C(=O)N4CCOCC4)cc3)cnc2N)nn1 [Example 28, [4-[6-Amino-5-(1-isopropyltriazol-4-yl)-3-pyridyl]phenyl]-morpholino-methanone] | 430 nM | 370 nM

The next lines start with the values.

IC50 (LRRK2 G2019S) | IC50 (LRRK2 WT) | SMILES
500 nM | 370 nM | CC(C)n1cc(-c2cc(-c3cccc(CN4CCOCC4)c3)cnc2N)nn1 [Example 24, 3-(1-Isopropyltriazol-4-yl)-5-[3-(morpholinomethyl)phenyl]pyridin-2-amine]
370 nM | 200 nM | CC(C)n1cc(-c2cc(-c3ccc(CN4CCOCC4)c(F)c3)cnc2N)nn1 [Example 15, 5-(3-fluoro-4-(morpholinomethyl)phenyl)-3-(1-isopropyl-1H-1,2,3-triazol-4-yl)pyridin-2-amine]
240 nM | 260 nM | Cc1cc(-c2cnc(N)c(-c3cn(C(C)C)nn3)c2)ccc1CN1CCOCC1 [Example 21]
95 nM | 91 nM | COc1cc(-c2cnc(N)c(-c3cn(C(C)C)nn3)c2)ccc1C(=O)N1CCOCC1 [Example 17, [4-[6-amino-5-(1-isopropyltriazol-4-yl)-3-pyridyl]-2-methoxy-phenyl]-morpholino-methanone]
380 nM | 2200 nM | CN1CCc2cc(-c3cnc(N)c(-c4nnc(C5CCNCC5)o4)c3)ccc21 [Example 5, 5-(1-Methyl-2,3-dihydro-1H-indol-5-yl)-3-(5-piperidin-4-yl-[1,3,4]oxadiazol-2-yl)-pyridin-2-ylamine]
340 nM | 570 nM | CC(C)n1cc(-c2nc(-c3ccc4c(c3)CCN4C)cnc2N)nn1 [Example 11, 3-(1-Isopropyl-1H-[1,2,3]triazol-4-yl)-5-(1-methyl-2,3-dihydro-1H-indol-5-yl)-pyrazin-2-ylamine]
1000 nM | 3300 nM | COc1cccc(-c2cnc(N)c(-c3nnc(C4CCNCC4)o3)c2)c1 [Example 7, 5-(3-Methoxy-phenyl)-3-(5-piperidin-4-yl-[1,3,4]oxadiazol-2-yl)-pyridin-2-ylamine]
290 nM | 290 nM | CC(C)n1cc(-c2cc(-c3ccc(C(=O)N4CCOCC4)c(Cl)c3)cnc2N)nn1 [Example 22, [4-[6-amino-5-(1-isopropyltriazol-4-yl)-3-pyridyl]-2-chloro-phenyl]-morpholino-methanone]
880 nM | 1000 nM | CC(C)n1cc(-c2cc(-c3ccc(F)c(CN4CCOCC4)c3)cnc2N)nn1 [Example 19, 5-[4-fluoro-3-(morpholinomethyl)phenyl]-3-(1-isopropyltriazol-4-yl)pyridin-2-amine]
